Measurements reported in patent US9750724B2, “Use of an aromatase inhibitor for the treatment of hypogonadism and related diseases” (Mereo BioPharma 2 Limited, priority 2011, dated 2017).

Key:
[1] = previous rat experiments; Batzl-Hartmann 1994, Bhatnagar 1996; cited from earlier work
[2] = test system: serum testosterone and estradiol; assay: 12 week open label dose-finding study (Part 1) in obese hypogonadotropic hypogonadal men; type: in vivo, human
Text: The study is designed as a 2-part study, with Part 1 being open-label to best determine the appropriate dose levels to use in Part 2, which has a randomized, double-blind, placebo controlled design.
As set out above, this is a two-part study in obese, hypogonadotropic hypogonadal (OHH) men, wherein Part 1 is a single group, open label, non-randomized study establishing appropriate dosing. After all subjects have successfully completed 4 weeks of treatment, they continue for up to a total of 12 weeks of treatment. Then Part 2 follows as a parallel group, randomized, double-blind, placebo-controlled design, for 12 weeks of treatment, with an interim analysis after 4 weeks of treatment. Both Parts of the study have up to a 28 day screening period, a single baseline day, a 12 week treatment period (11 weekly doses), followed by a 3 month follow-up period.
Thus, for Part 1 of the study, it was decided to start with 0.01 mg as the loading dose, assess the testosterone response at 5 or 6 days after a single dose, and adjust the next weekly dose up or down based on the acute testosterone response. The weekly maintenance dose is not expected to exceed 0.5 mg. For at least the first 4 weeks of treatment, subject's sex steroid levels are measured prior to their subsequent dosing. The subsequent dose is the adjusted based on the prior response.
If free testosterone is above normal, the Week 2 dose will be 1/10 (0.001 mg) of the loading dose. If free testosterone is below normal, the Week 2 dose will be ½ of the loading dose (0.005 mg). Subsequent weekly doses are adjusted on a ½ log order to achieve normalization of free testosterone levels.
Assessments and evaluations: The following assessments will be performed during the study: • 1. Background, demographic and administrative assessments • Inclusion/exclusion criteria; Relevant medical history/Current medical conditions • Demography • Physical examination, including digital prostate examination • International Prostate Symptom Score (IPSS) • Hepatitis screen, HIV screen • Alcohol test, Drug screen • Prolactin, ferritin and thyroid stimulating hormone (TSH) • Drug administration: each time study drug is administered • Study Completion information • Comments • 2. Safety and tolerability assessments • Vital signs and body measurements • Body height (BMI will be calculated) • Body weight* • Body temperature • Blood pressure, pulse rate • ECG evaluations • Hematology; Blood chemistry; Urinalysis • Prostate specific antigen (PSA) • Adverse events: from time of first administration of study drug until Study Completion. Adverse events occurring before starting study treatment but after signing the informed consent form are recorded on the Medical History/Current Medical Conditions Case Report Form. • Serious adverse events: from time of consent until 30 days after Study Completion • Concomitant medications/Significant non-drug therapies: Refer to entry criteria and Concomitant medication for details of recording requirements for allowed and restricted medications during the study. • 3. Pharmacokinetic (PK) blood assessments: PK samples will be collected on multiple occasions during the treatment phase of the study. PK assessments will also be collected every 6 weeks during the safety follow-up period. […]

[3] = Single ascending dose study in women, safety and bone density (DEXA); type: in vivo; settings: single doses 0.01 mg through 20 mg, post-menopausal women
Method: Patients received either 0.1 mg, 1 mg, and 10 mg drug substance containing hard gelatin capsules or appropriate matching placebo capsules.
A minimal toxic dose (MTD) was not reached. […] Table 3 presents the PK parameters based on preliminary analysis of the concentration-time profile obtained from this study.

[4] = Physicochemical properties of the crystalline compound; settings: crystalline powder
[5] = Toxicologic studies in female and male dogs, weekly oral dosing; type: in vivo, dog
Text: Generally, the inter-animal variability in Cmax levels was small.

[6] = biological target: T1, aromatase (Rattus norvegicus, UniProt P22443); settings: once weekly administration, adult female rats; Batzl-Hartmann et al, 1994; cited from earlier work
T1 construct: host or cells: adult female rats (whole animal, endogenous enzyme)
T1 sequence (P22443 1-508): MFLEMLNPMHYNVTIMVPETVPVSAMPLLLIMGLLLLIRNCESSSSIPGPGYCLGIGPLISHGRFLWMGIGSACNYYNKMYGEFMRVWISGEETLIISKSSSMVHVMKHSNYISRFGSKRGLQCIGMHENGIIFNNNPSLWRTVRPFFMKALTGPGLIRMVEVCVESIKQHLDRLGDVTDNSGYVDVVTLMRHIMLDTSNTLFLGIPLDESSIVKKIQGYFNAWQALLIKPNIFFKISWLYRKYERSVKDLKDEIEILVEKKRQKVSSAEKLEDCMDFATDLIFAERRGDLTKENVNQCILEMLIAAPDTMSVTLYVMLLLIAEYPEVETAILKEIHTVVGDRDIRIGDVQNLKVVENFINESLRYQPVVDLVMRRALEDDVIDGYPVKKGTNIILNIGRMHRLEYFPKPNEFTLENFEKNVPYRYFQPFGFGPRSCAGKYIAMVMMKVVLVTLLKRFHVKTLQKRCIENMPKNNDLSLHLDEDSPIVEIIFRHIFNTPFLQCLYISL

[7] = weekly oral doses 0.003 mg to 5 mg

SMILES: N#Cc1ccc(C(F)(c2ccc(C#N)cc2)n2cncn2)cc1 [CGP47645, 4,4′-[fluoro-(1-H-1,2,4-triazol-1-yl)methylene]bisbenzonitrile]
- half-life [1]: about a week
- tolerability ([2]; 14 obese hypogonadal men, weekly oral doses 0.003 mg to 5 mg, 12 weeks): tolerated CGP47645 well
- testosterone normalization (RIA) ([2]; 14 obese hypogonadal men, weekly oral doses 0.003 mg to 5 mg, during treatment): rose in all men individually into the normal range
- average serum estradiol at week 12 ([2]; baseline 24±4.9 pg/mL, LC-MS): 18 ± 9.4 pg/mL
- average testosterone at week 12 ([2]; baseline 250±22.3 ng/dL, RIA): 550 ± 191.8 ng/dL
- average change of testosterone from baseline to week 12 [2, 7]: approximately 2 fold
- reduction of serum estradiol (LC-MS) [2, 7]: 30-50%
- minimal toxic dose (MTD) [3]: not reached
- hygroscopicity [4]: not hygroscopic
- Tmax ([5]; both sexes, dog, plasma, oral, dogs, post dose): 1 to 24 h
- difference in exposure (AUC and Cmax) between male and female dogs ([5]; dogs): no consistent difference
- drug accumulation ([5]; dogs, weekly oral dosing for 4 or 22 weeks versus single dose): no drug accumulation
- increase in exposure (AUC and Cmax) versus dose ([5]; male and female dogs, single and multiple doses): generally proportional to the dose increase
- serum testosterone levels ([5]; male dogs after 1, 4 and 12 weeks of dosing): dramatically elevated testosterone levels at all dose levels
- effective dose achieving medical castration [6]: 3 mg/kg
